Reference: a melting point compilation (Tetko et al.; mined from patent text by program, amines drawn as free bases though some values may be those of a salt)

Molecule `Sc1nc(-c2ccc3c(c2)OCO3)c(-c2ccc3c(c2)OCO3)[nH]1` has a melting point of 282 to 283 °C. Work on `O=c1cc(-c2cc(OCc3ccccc3)cc(OCc3ccccc3)c2)oc2cc(OCC3CO3)ccc12` (stereo unspecified) yielded a melting point of 172 to 173 °C. In the case of `C=CCOc1ccc(Cl)cc1NC(=O)Cc1ccc(OC)c(OC2CCCC2)c1`, the melting point is reported as 75 to 76.5 °C. For `O=C1CCCc2[nH]c3cc(F)ccc3c21`, the melting point was 231 to 233 °C. In the case of `COc1cc([C@@H]2c3cc4c(cc3C(=O)C[C@H]2C(=O)O)OCO4)cc(OC)c1OC` (relative stereo), the melting point is reported as 221 to 223 °C. Work on `Cc1ccc(S(=O)(=O)N2Cc3cncnc3-c3ccc(Cl)cc3C2c2ccccc2Cl)cc1` (stereo unspecified) yielded a melting point of 200 to 201 °C. `O=C(Cc1ccccc1)c1ccc(SCC(F)(F)F)cc1` showed a melting point of 60 to 61 °C. Molecule `O=C(NCc1ccc(Cl)cc1)c1cn(N2CCOCC2)c2ccc(CN3CCOCC3)cc2c1=O` has a melting point of 195 to 196 °C. `Nc1ccccc(Br)c1=O` showed a melting point of 133 to 135 °C. For `CC(C)c1cccc(C(C)C)c1NC(=O)CC(=O)CC(c1ccccc1)c1ccccc1`, the melting point was 146 to 148 °C. Work on `COc1ccc([N+](=O)[O-])cc1C=C1COc2ccc(OCc3ccccc3)cc2C1=O` yielded a melting point of 156 to 157 °C. Work on `N#Cc1ccc(-c2ccc(-c3ccc(Br)o3)o2)nc1` yielded a melting point of 143 to 145 °C. With `Cc1cc(COC2=NS(=O)(=O)c3ccccc32)sn1` the melting point was 202 to 204 °C. Molecule `CCOC(=O)C(=O)Nc1cccc(OCCO)c1C(N)=O` has a melting point of 146 to 148 °C. In the case of `CCOC(=O)C(C)(C)n1c(=O)[nH]c2ccc(F)cc2c1=O`, the melting point is reported as 167 to 169 °C. `NCc1cccc(C2CCN(c3nc4c(cc3F)c(=O)c(C(=O)O)cn4C3CC3)C2)c1` (stereo unspecified) showed a melting point of 274 to 276 °C. `Cc1nc2c3c(c(C(=O)NCCO)cc2n1C)CCC1(Cc2ccccc2C1)N3` showed a melting point of 167 to 168 °C. `COCC1COC(Cn2cncn2)(c2ccc(Cl)cc2Cl)O1` (stereo unspecified) showed a melting point of 64 to 74 °C. In the case of `N#Cc1cccc(C=Nc2ccc(F)cc2)c1`, the melting point is reported as 101 °C. With `O=C(O)c1cn(-n2cnnc2)c2cc(F)c(F)cc2c1=O` the melting point was 270 °C. With `Cc1cc(C)nc(N(N=O)c2ccccc2)n1` the melting point was 117 to 121 °C. For `CC(C)(Cc1ccc(S(=O)C(F)(F)F)cc1)C(O)c1cncnc1` (stereo unspecified), the melting point was 122 °C. `C=CCN1C(C)(C)CC(OC(=O)CCC(C)(c2ccc(O)c(C(C)(C)C)c2)c2ccc(O)c(C(C)(C)C)c2)CC1(C)C` gave a melting point of 197 °C. In the case of `NC(=O)c1ccc(F)c2c1CC(N(CCCCc1c[nH]c3ccc(F)cc13)CC1CC1)CO2` (stereo unspecified), the melting point is reported as 115 °C. With `CCC(Oc1ccc(C(C)(C)CC)cc1C(C)(C)CC)C(=O)Nc1ccc(Cl)c(NC(=O)CC(=O)C(C)(C)Sc2ccccc2)c1` (stereo unspecified) the melting point was 73 to 75 °C. With `CCc1cc(OC)c(C=C(C)[N+](=O)[O-])cc1OC` the melting point was 63 to 64 °C. Molecule `N=C(N)NC(=O)OCCNC(=O)c1ccc2cc(C(=O)NC(=N)N)ccc2c1` has a melting point of 205 °C. Work on `OC1(C2CCC(c3c(F)cccc3F)=N2)C=CC(c2ccccc2)=CC1` (stereo unspecified) yielded a melting point of 217 °C. In the case of `COc1cc(OC)nc(Oc2cccc(Oc3ccccc3)c2C(=O)O)n1`, the melting point is reported as 116 to 118 °C. `CC(C)C(CC(O)C(CC1CCCCC1)NC(=O)C(Cc1c[nH]cn1)NC(=O)C(N)Cc1ccccc1)C(O)CN(Cc1ccccn1)C(=O)OCc1ccccc1` (mixture of isomers) gave a melting point of 94 °C. Work on `O=C(O)CCN1CCN(c2ccccc2Cl)CC1` yielded a melting point of 210 to 213 °C. In the case of `Cc1cccc(C)c1NC(=O)CN1C(=O)C2(COc3cc4c(cc32)CCO4)c2ccccc21` (stereo unspecified), the melting point is reported as 261 to 262 °C. Molecule `C#CCn1nnnc1SC(c1ccccc1)c1ccccc1` has a melting point of 92 °C. With `COc1cc(N2CCN(C)CC2)c2oc(C(=O)Nc3ccc(N4CCN(C(=O)CCO)CC4)cc3)cc(=O)c2c1` the melting point was 195 to 197 °C. Molecule `COc1ccc(C(C)N(C)CCCCOc2ccc(S(=O)(=O)c3c(C(C)C)cn4ccccc34)cc2)cc1OC` (stereo unspecified) has a melting point of 84 to 86 °C. In the case of `CCCCOC(=O)C=Cc1ccc(C=CC(=O)OCCCC)c2nsnc12`, the melting point is reported as 90 to 94 °C.
